{"source": "patent US11642341B2", "about": "“Combination of brexpiprazole and nalmefene and use thereof for treating substance-related disorders” (OTSUKA PHARMACEUTICAL CO., LTD., priority 2014, dated 2023)", "key": {"Wistar rats [1]": {"tested_on": "Wistar rats", "details": "report Alcohol & Alcoholism 2001; 36: 2-10; present dose 0.04 mg/kg; cited from earlier work"}, "rat": {"tested_on": "rat", "experiment": "Spontaneous locomotor activity under novel environments", "format": "in vivo", "details": "data not shown"}, "Wistar rats [2]": {"tested_on": "Wistar rats", "experiment": "Measurement of alcohol intake by limited access paradigm", "format": "in vivo", "details": "data not shown", "experimental": "Measurement method: An impulsive behavior of cravings for drinking alcohol was evaluated as follows by reference to the method of Sinclair et al. (Alcohol 1992; 9:441-44 and Alcohol & Alcoholism 2001; 36:2-10). First, Wistar rats (male) were allowed to freely drink 10% aqueous ethanol solution and tap water for several weeks under isolated rearing. After the ethanol intake of each animal became stable, limited access paradigm allowing ethanol intake only for 1 hr per day was started, and the ethanol intake in 1 hr was measured every day. The ethanol intake was calculated from the results of weight measurement of a water supply bottle filled with 10% aqueous ethanol solution immediately before the start of the limited access paradigm and immediately after the completion of the limited access paradigm. […] The limited access paradigm test was performed during 9:00 AM-4:00 PM. […]\nThe significance level of the test was set to 5%. […] The difference between an average ethanol intake in the limited access paradigm for 4 days immediately before drug evaluation and an average ethanol intake in the limited access paradigm for 4 days during the drug administration period was calculated for every animal, and analyzed by two-way factorial analysis of variance by using the presence or absence of brexpiprazole and the presence or absence of nalmefene as factors."}, "[3]": {"details": "nalmefene hydrochloride monohydrate alone 0.04 mg/kg subcutaneously"}, "[4]": {"details": "brexpiprazole alone 0.01 mg/kg orally"}}, "note": "Counter-ions that a name gives are not always drawn."}
{"smiles": "C=C1CC[C@@]2(O)[C@H]3Cc4ccc(O)c5c4[C@@]2(CCN3CC2CC2)[C@H]1O5", "note": "[nalmefene, 17-(cyclopropylmethyl)-4,5α-epoxy-6-methylenemorphinan-3,14-diol]", "values": [{"measurement": "dose at which nalmefene used singly shows effects in this evaluation system, relative to the dose used in the present test", "setting": "Wistar rats [1]", "result": "about 10 times"}]}
{"smiles": "C=C1CC[C@@]2(O)[C@H]3Cc4ccc(O)c5c4[C@@]2(CCN3CC2CC2)[C@H]1O5", "note": "[nalmefene hydrochloride monohydrate]", "values": [{"measurement": "influence on spontaneous locomotor activity under novel environments, drug by itself", "setting": "rat; [3]", "result": "does not, by itself, influence"}, {"measurement": "influence on ethanol intake, drug by itself", "setting": "Wistar rats [2]; [3]", "result": "does not, by itself, influence"}]}
{"smiles": "O=c1ccc2ccc(OCCCCN3CCN(c4cccc5sccc45)CC3)cc2[nH]1", "note": "[brexpiprazole, 7-[4-(4-benzo[b]thiophen-4-yl-piperazin-1-yl)butoxy]-1H-quinolin-2-one]", "values": [{"measurement": "influence on spontaneous locomotor activity under novel environments, drug by itself", "setting": "rat; [4]", "result": "does not, by itself, influence"}, {"measurement": "influence on ethanol intake, drug by itself", "setting": "Wistar rats [2]; [4]", "result": "does not, by itself, influence"}]}
